# Results: US20260042764A1, “COMPOSITIONS AND METHODS FOR INHIBITION OF KRAS” (TheRas, Inc., priority 2022, published 2026)
# Experiments:
# [1] = target: T1, Avi-KRAS G12D (1-169) GppNHp/RAF1 RBD-3xFLAG (52-151) (Homo sapiens, UniProt P01116, G12D); assay: Raf1-KRAS G12D-GppNHP disruption HTRF assay (Biological Example 1); format: binding
# T1 construct: Avi-KRAS G12D (1-169)
# In short: (§1)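 Percent activity versus DMSO (100%) was derived from HTRF signal after KRAS–RAF1 RBD protein mix was incubated 1 h at room temperature with shaking and detection reagents were added for a further 1 h.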
# [2] = target: T2, Avi-KRAS G12R (1-169) GppNHp/RAF1 RBD-3xFLAG (52-151) (Homo sapiens, UniProt P01116, G12R); assay: Raf1-KRAS G12R-GppNHP disruption HTRF assay (Biological Example 1); format: binding
# T2 construct: Avi-KRAS G12R (1-169)
# In short: as §1
# [3] = target: T3, Avi-KRAS G12V (1-169) GppNHp/RAF1 RBD-3xFLAG (52-151) (Homo sapiens, UniProt P01116, G12V); assay: Raf1-KRAS G12V-GppNHP disruption HTRF assay (Biological Example 1); format: binding
# T3 construct: Avi-KRAS G12V (1-169)
# In short: as §1
# [4] = target: T4, Avi-KRAS WT (1-169) GppNHp/RAF1 RBD-3xFLAG (52-151) (Homo sapiens, UniProt P01116); assay: Raf1-KRAS WT-GppNHP disruption HTRF assay (Biological Example 1); format: binding
# T4 construct: Avi-KRAS WT (1-169)
# In short: as §1
# GP2d cells (KRAS G12D) = assay: Cell-based pERK HTRF assay in GP2d cell (Biological Example 2); conditions: GP2d (KRAS G12D) cells, pERK HTRF
# In short: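 Treatment with test compounds lasted one hour in DMEM containing 10% FBS, with DMSO held at 0.25%. Dilution series: 9 points, half-log spacing, highest 1 μM or 100 nM. Lysates were incubated 4–24 h at room temperature with antibody mix, then HTRF was read at 320 nm excitation.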
# SW620 cells (KRAS G12V) = assay: Cell-based pERK HTRF assay in SW620 cell (Biological Example 4); conditions: pERK HTRF
# In short: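 In SW620 cells grown in RPMI with 10% FBS, a 4 h compound treatment (0.25% DMSO, 9-point curve from 1 μM) preceded lysis. Phospho-ERK levels were then read by time-resolved FRET at 615 nm emission.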
# [5] = Homo sapiens, SW-620, SW620 (KRAS G12V) cells
# [6] = KRAS G12D, GppNHp-loaded, class symbols
# [7] = KRAS G12R, GppNHp-loaded, class symbols
# [8] = KRAS G12V, GppNHp-loaded, class symbols
# [9] = KRAS WT, GppNHp-loaded, class symbols
# [10] = Homo sapiens, SW-620, SW620 (KRAS G12V) cells, class symbols
# [11] = KRAS G12D, GppNHp-loaded, Table 11
# [12] = KRAS G12R, GppNHp-loaded, Table 11
# [13] = KRAS G12V, GppNHp-loaded, Table 11
# [14] = KRAS WT, GppNHp-loaded, Table 11
# T1 sequence (P01116 1-169 isoform P01116-2 G12D): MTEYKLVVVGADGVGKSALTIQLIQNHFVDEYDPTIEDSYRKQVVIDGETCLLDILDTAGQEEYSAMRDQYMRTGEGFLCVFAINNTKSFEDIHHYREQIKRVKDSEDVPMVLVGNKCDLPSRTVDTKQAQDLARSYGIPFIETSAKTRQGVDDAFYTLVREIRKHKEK
# T4 sequence (P01116 1-169 isoform P01116-2): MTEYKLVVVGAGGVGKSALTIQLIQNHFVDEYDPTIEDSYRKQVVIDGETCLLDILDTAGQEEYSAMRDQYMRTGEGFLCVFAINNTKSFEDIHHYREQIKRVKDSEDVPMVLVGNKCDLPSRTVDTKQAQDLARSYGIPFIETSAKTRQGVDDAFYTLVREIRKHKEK
# T3 sequence (P01116 1-169 isoform P01116-2 G12V): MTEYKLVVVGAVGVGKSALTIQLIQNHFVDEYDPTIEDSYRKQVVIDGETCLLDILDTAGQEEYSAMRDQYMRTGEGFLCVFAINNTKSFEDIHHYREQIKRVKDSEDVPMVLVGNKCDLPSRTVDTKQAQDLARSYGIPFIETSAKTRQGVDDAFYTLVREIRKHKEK
# T2 sequence (P01116 1-169 isoform P01116-2 G12R): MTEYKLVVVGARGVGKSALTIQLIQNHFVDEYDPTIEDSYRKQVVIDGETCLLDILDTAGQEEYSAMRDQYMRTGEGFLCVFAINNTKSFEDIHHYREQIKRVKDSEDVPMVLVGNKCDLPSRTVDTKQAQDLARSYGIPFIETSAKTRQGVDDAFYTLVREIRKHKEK
IC50 ([1]; KRAS G12D-GppNHp/RAF1 RBD HTRF) [nM],IC50 ([2]; KRAS G12R-GppNHp/RAF1 RBD HTRF) [nM],IC50 ([3]; KRAS G12V-GppNHp/RAF1 RBD HTRF) [nM],IC50 ([4]; KRAS WT-GppNHp/RAF1 RBD HTRF) [nM],IC50 (GP2d cells (KRAS G12D); GP2d) [nM],IC50 (SW620 cells (KRAS G12V); [5]) [nM],"IC50 [1, 11] [nM]","IC50 [2, 12] [nM]","IC50 [3, 13] [nM]","IC50 [4, 14] [nM]",SMILES,further results
100 to 1000,100 to 1000,1000 to 10000,100 to 1000,< 100,100 to 1000,–,–,–,–,N#Cc1c(N)sc2c(F)ccc(-c3c(C(F)(F)F)cc4c(N5C6CC5CS(=O)(=O)C6)nc(OC[C@@]56CCCN5C[C@H](F)C6)nc4c3F)c12 [Compound 357],–
100 to 1000,100 to 1000,100 to 1000,100 to 1000,< 100,< 100,–,–,–,–,CCC(=O)N1C[C@@H](N(C)c2nc(OC[C@@]34CCCN3C[C@H](F)C4)nc3c(F)c(-c4ccc(F)c5sc(N)c(C#N)c45)c(C(F)(F)F)cc23)C[C@@H]1C [Compound 435],–
–,–,–,–,–,–,–,–,–,–,"CCN(c1nc(OC[C@@]23CCCN2C[C@H](F)C3)nc2c(F)c(-c3ccc(F)c4sc(N)c(C#N)c34)c(C(F)(F)F)cc12)[C@H]1CCN(C(=O)[C@H]2CC23CC3)C1 (atropisomer, axis not shown) [Compound 772]","IC50 [1, 6]: < 100 nM; IC50 [2, 7]: < 100 nM; IC50 [3, 8]: < 100 nM; IC50 [4, 9]: < 100 nM; IC50 (GP2d cells (KRAS G12D); GP2d, class symbols): < 100 nM; IC50 (SW620 cells (KRAS G12V); [10]): < 100 nM"
–,–,–,–,–,–,> 10000,> 10000,> 10000,> 10000,"CC(=O)N1CC[C@H](N(C)c2nc(OC[C@@]34CCCN3C[C@H](F)C4)nc3c(F)c(-c4ccc(F)c5sc(N)c(C#N)c45)c(C(F)(F)F)cc23)[C@@H]1C (single isomer, unassigned) [Compound 194]",IC50 (GP2d cells (KRAS G12D)): > 1000 nM; IC50 (SW620 cells (KRAS G12V); SW620 (KRAS G12V) cells): > 1000 nM
100 to 1000,1000 to 10000,1000 to 10000,100 to 1000,< 100,100 to 1000,–,–,–,–,CCN(c1nc(OC[C@@]23CCCN2C[C@H](F)C3)nc2c(F)c(-c3ccc(F)c4sc(N)c(C#N)c34)c(Cl)cc12)[C@@H]1CCN(C(C)=O)[C@H]1C [Compound 416],–
100 to 1000,100 to 1000,100 to 1000,100 to 1000,< 100,< 100,–,–,–,–,N#Cc1c(N)sc2c(F)ccc(-c3c(C(F)(F)F)cc4c(N5CCCC[C@H](O)C5)nc(OC[C@@]56CCCN5C[C@H](F)C6)nc4c3F)c12 [Compound 290],–
–,–,–,–,< 100,100 to 1000,100 to 1000,100 to 1000,100 to 1000,100 to 1000,CC(=O)N(C)[C@@H]1CCN(c2nc(OC[C@@]34CCCN3C[C@H](F)C4)nc3c(F)c(-c4ccc(F)c5sc(N)c(C#N)c45)c(C(F)(F)F)cc23)C1 [Compound 207],–
–,–,–,–,100 to 1000,> 1000,1000 to 10000,1000 to 10000,1000 to 10000,1000 to 10000,C[C@H]1[C@@H](N(C)c2nc(OC[C@@]34CCCN3C[C@H](F)C4)nc3c(F)c(-c4ccc(F)c5sc(N)c(C#N)c45)c(C(F)(F)F)cc23)CCN1C(=O)CO [Compound 240],–
–,–,–,–,< 100,< 100,100 to 1000,100 to 1000,100 to 1000,100 to 1000,C[C@]1(O)CCCN(c2nc(OC[C@@]34CCCN3C[C@H](F)C4)nc3c(F)c(-c4ccc(F)c5sc(N)c(C#N)c45)c(C(F)(F)F)cc23)C1 [Compound 241],–
100 to 1000,100 to 1000,100 to 1000,100 to 1000,< 100,< 100,–,–,–,–,COC(=O)N1CC[C@@H](N(C)c2nc(OC[C@@]34CCCN3C[C@H](F)C4)nc3c(F)c(-c4ccc(F)c5sc(N)c(C#N)c45)c(C(F)(F)F)cc23)[C@H]1C [Compound 410],–
100 to 1000,1000 to 10000,1000 to 10000,100 to 1000,< 100,100 to 1000,–,–,–,–,CC(=O)N1C[C@@H]2CCCN(c3nc(OC[C@@]45CCCN4C[C@H](F)C5)nc4c(F)c(-c5ccc(F)c6sc(N)c(C#N)c56)c(C(F)(F)F)cc34)[C@@H]2C1 [Compound 451],–
–,–,–,–,–,–,100 to 1000,100 to 1000,100 to 1000,100 to 1000,"CN(c1nc(OC[C@@]23CCCN2C[C@H](F)C3)nc2c(F)c(-c3ccc(F)c4sc(N)c(C#N)c34)c(C(F)(F)F)cc12)[C@H]1CCS(=O)(=O)C1 (single isomer, unassigned) [Compound 221]",IC50 (GP2d cells (KRAS G12D)): < 100 nM; IC50 (SW620 cells (KRAS G12V); SW620 (KRAS G12V) cells): < 100 nM
–,–,–,–,< 100,< 100,100 to 1000,1000 to 10000,1000 to 10000,100 to 1000,CN1CCN(c2nc(OC[C@@]34CCCN3C[C@H](F)C4)nc3c(F)c(-c4ccc(F)c5sc(N)c(C#N)c45)c(C(F)(F)F)cc23)CC1=O [Compound 257],–
< 100,< 100,< 100,< 100,< 100,< 100,–,–,–,–,"CCN(c1nc(OC[C@@]23CCCN2C[C@H](F)C3)nc2c(F)c(-c3ccc(F)c4sc(N)c(C#N)c34)c(C(F)(F)F)cc12)[C@H]1CCN(C(=O)C2CCC2)C1 (atropisomer, axis not shown) [Compound 551]",–
–,–,–,–,< 100,100 to 1000,100 to 1000,100 to 1000,100 to 1000,100 to 1000,"CC(=O)N1CC[C@@H](N(C)c2nc(OC[C@@]34CCCN3C[C@H](F)C4)nc3c(F)c(-c4ccc(F)c5sc(N)c(C#N)c45)c(C(F)(F)F)cc23)[C@@H]1C [Compound 190, 4-(4-(((2S,3R)-1-acetyl-2-methylpyrrolidin-3-yl)(methyl)amino)-8-fluoro-2-(((2R,7aS)-2-fluorotetrahydro-1H-pyrrolizin-7a(5H)-yl)methoxy)-6-(trifluoromethyl)quinazolin-7-yl)-2-amino-7-fluorobenzo[b]thiophene-3-carbonitrile]",–
100 to 1000,100 to 1000,100 to 1000,100 to 1000,< 100,< 100,–,–,–,–,COC[C@H]1CN(c2nc(OC[C@@]34CCCN3C[C@H](F)C4)nc3c(F)c(-c4ccc(F)c5sc(N)c(C#N)c45)c(C(F)(F)F)cc23)CCO1 [Compound 283],–
–,–,–,–,–,–,–,–,–,–,"CCN(c1nc(OC[C@@]23CCCN2C[C@H](F)C3)nc2c(F)c(-c3ccc(F)c4sc(N)c(C#N)c34)c(C(F)(F)F)cc12)[C@H]1CCN(C(=O)c2cc(C)no2)C1 (atropisomer, axis not shown) [Compound 771]","IC50 [1, 6]: < 100 nM; IC50 [2, 7]: < 100 nM; IC50 [3, 8]: < 100 nM; IC50 [4, 9]: < 100 nM; IC50 (GP2d cells (KRAS G12D); GP2d, class symbols): < 100 nM; IC50 (SW620 cells (KRAS G12V); [10]): < 100 nM"
–,–,–,–,–,–,–,–,–,–,CCN(c1nc(OC[C@@]23CCCN2C[C@H](F)C3)nc2c(F)c(-c3ccc(F)c4sc(N)c(C#N)c34)c(C(F)(F)F)cc12)[C@H]1CCN(C(=O)N2CC3CC(C2)O3)C1 [Compound 651],"IC50 [1, 6]: < 100 nM; IC50 [2, 7]: < 100 nM; IC50 [3, 8]: < 100 nM; IC50 [4, 9]: < 100 nM; IC50 (GP2d cells (KRAS G12D); GP2d, class symbols): < 100 nM; IC50 (SW620 cells (KRAS G12V); [10]): < 100 nM"
< 100,< 100,< 100,< 100,< 100,< 100,–,–,–,–,"CCN(c1nc(OC[C@@]23CCCN2C[C@H](F)C3)nc2c(F)c(-c3ccc(F)c4sc(N)c(C#N)c34)c(C(F)(F)F)cc12)[C@H]1CCN(C(=O)C(F)F)C1 (atropisomer, axis not shown) [Compound 547]",–
1000 to 10000,100 to 1000,1000 to 10000,1000 to 10000,< 100,< 100,–,–,–,–,C[C@@H]1Cn2nc(C(=O)N(C)C)cc2CN1c1nc(OC[C@@]23CCCN2C[C@H](F)C3)nc2c(F)c(-c3ccc(F)c4sc(N)c(C#N)c34)c(C(F)(F)F)cc12 [Compound 510],–
100 to 1000,100 to 1000,1000 to 10000,100 to 1000,< 100,< 100,–,–,–,–,CN1CC[C@H](N(C)c2nc(OC[C@@]34CCCN3C[C@H](F)C4)nc3c(F)c(-c4ccc(F)c5sc(N)c(C#N)c45)c(C(F)(F)F)cc23)CC1=O [Compound 281],–
